# In ChEMBL document CHEMBL1121621, “Synthesis and antiarrhythmic activity of alpha, alpha-bis[(dialkylamino)alkyl]phenylacetamides” (J Med Chem, 1980):
# Columns and labels:
# [1] = tested on: Canis familiaris; experiment: Antiarrhythmic activity was evaluated in mixed-breed or Beagle dogs after intravenous administration.; format: functional, Canis lupus familiaris, Heart
# [2] = tested on: Canis familiaris; experiment: Minimum effective dose evaluated in mixed-breed or Beagle dogs after intravenous administration; format: functional; conditions: Canis lupus familiaris, read-out: MED
# [3] = tested on: Canis familiaris; experiment: Activity duration index was evaluated in mixed-breed or Beagle dogs after intravenous administration.; format: functional, Canis lupus familiaris
# [4] = Therapeutic ratio in mixed-breed or Beagle dogs after intravenous administration of the compound.; format: ADME, Canis lupus familiaris; conditions: dog, in vivo, read-out: TR
# [5] = tested on: Canis familiaris; experiment: Compound was evaluated for maximum reduction of ectopic beats after oral administration at a dose 25 mg/kg to dog.; format: functional, Canis lupus familiaris, Heart
# [6] = tested on: Canis familiaris; experiment: Compound was evaluated for onset of action after oral administration at a dose 25 mg/kg to dog.; format: functional, Canis lupus familiaris
# [7] = tested on: Canis familiaris; experiment: Compound was evaluated for duration of action after oral administration at a dose 25 mg/kg to dog.; format: functional, Canis lupus familiaris
Compound,AR [1],minimal effective dose [2],ADI [3],selectivity ratio [4],Reduction [5],Onset of action [6],Duration [7]
CC(C)N(CCC(CCN(C)C)(C(N)=O)c1ccc(F)cc1)C(C)C (stereo unspecified),2.2,15 mg/kg,0.21,1.1,,,
CC(C)N(CCC(CCN1CCCCC1)(C(N)=O)c1cccc(Cl)c1)C(C)C (stereo unspecified),4.4,2.3 mg/kg,0.7,3,,,
CC(C)N(CCC(CCN(C(C)C)C(C)C)(C(N)=O)c1cccc(F)c1)C(C)C,6,3 mg/kg,0.66,2.4,,,
CC(C)N(CCC(CCN1CCCCC1)(C(N)=O)c1ccc(Cl)cc1)C(C)C (stereo unspecified),6.6,3.5 mg/kg,0.51,1,,,
CC(C)N(CCC(CCN(C(C)C)C(C)C)(C(N)=O)c1ccc(Cl)c(Cl)c1)C(C)C,5.8,2.5 mg/kg,0.63,4.6,,,
CC(C)N(CCC(CCN1CCCCC1)(C(N)=O)c1ccc(F)cc1F)C(C)C (stereo unspecified),6,6 mg/kg,0.42,> 4,,,
CC(C)N(CCC(CCN(C(C)C)C(C)C)(C(N)=O)c1ccccc1Cl)C(C)C,6.5,2.5 mg/kg,1.57,3.5,,,
CC(C)N(CCC(CCN(C)C)(C(N)=O)c1ccccc1Cl)C(C)C (stereo unspecified),2.7,7.5 mg/kg,0.31,4.7,,,
CC(C)N(CCC(CCCN(C)C)(C(N)=O)c1ccccc1)C(C)C (stereo unspecified),,20 mg/kg,,,,,
CC(C)N(CCC(CCN1CCCCC1)(C(N)=O)c1ccc(C(C)(C)C)cc1)C(C)C (stereo unspecified),7.8,2.5 mg/kg,0.82,2.9,,,
CC(C)N(CCC(CCN(C(C)C)C(C)C)(C(N)=O)c1ccc(Cl)cc1Cl)C(C)C,7.6,1.5 mg/kg,2.14,4,,,
Cc1ccc(C(CCN(C(C)C)C(C)C)(CCN(C(C)C)C(C)C)C(N)=O)cc1,5.3,2 mg/kg,,1.9,,,
CC(C)N(CCC(CCN(C(C)C)C(C)C)(C(N)=O)c1ccccc1Br)C(C)C,6.1,1.5 mg/kg,2.16,8,,,
CC(C)N(CCC(CCN1CCCCC1)(C(N)=O)c1ccc(F)cc1)C(C)C (stereo unspecified),4.4,8.3 mg/kg,0.58,1,,,
CC(C)N(CCC(CCN1CCOCC1)(C(N)=O)c1ccccc1)C(C)C (stereo unspecified),5.6,5 mg/kg,,7.6,84%,285 min,52 min
CC(C)N(CCC(CCN1C(C)CCCC1C)(C(N)=O)c1ccccc1F)C(C)C (stereo unspecified),8.3,3.3 mg/kg,2.2,6.7,,,
CC(C)N(CCC(CCN(C(C)C)C(C)C)(C(N)=O)c1ccc(F)cc1F)C(C)C,7.7,4.5 mg/kg,0.69,4.7,,,
CC(C)N(CCC(CCCN1CC2CCC(CC2)C1)(C(N)=O)c1ccccc1Cl)C(C)C (stereo unspecified),6.3,7 mg/kg,0.3,4,,,
CC(C)N(CCC(CCN1CCCCCC1)(C(N)=O)c1ccccc1)C(C)C (stereo unspecified),6.8,3 mg/kg,0.68,8.7,,,

Compound,AR [1],minimal effective dose [2],ADI [3],selectivity ratio [4],Reduction [5],Onset of action [6],Duration [7]
COc1ccc(C(CCN(C(C)C)C(C)C)(CCN(C(C)C)C(C)C)C(N)=O)cc1,6.5,4 mg/kg,1.33,3.1,,,
CC(C)N(CCC(CCN1CCN2CCCC2C1)(C(N)=O)c1ccccc1)C(C)C (stereo unspecified),2.7,10 mg/kg,,> 5,,,
CC(C)N(CCC(CCCN1CCCCC1)(C(N)=O)c1ccccc1Cl)C(C)C (stereo unspecified),4.6,3.5 mg/kg,1.55,5,,,
CC(C)N(CCC(CCCN(C)C)(C(N)=O)c1ccccc1F)C(C)C (stereo unspecified),1.8,12.5 mg/kg,0.12,> 4,,,
CC(C)N(CCC(CCn1cccc1)(C(N)=O)c1ccccc1F)C(C)C (stereo unspecified),3.6,7.5 mg/kg,0.59,7.3,,,
CC(C)N(CCC(CCN(C(C)C)C(C)C)(C(N)=O)c1cccc(C(F)(F)F)c1)C(C)C,6,3 mg/kg,1.5,2.4,,,
CC(C)N(CCC(CCN(C(C)C)C(C)C)(C(N)=O)c1cccc(Cl)c1)C(C)C,6.9,1.5 mg/kg,1.42,6.7,,,
CC(C)N(CCC(CCN(C)C)(C(N)=O)c1ccc(C(C)(C)C)cc1)C(C)C (stereo unspecified),4.9,5 mg/kg,0.76,1.3,,,
Cc1ccccc1C(CCN(C(C)C)C(C)C)(CCN(C(C)C)C(C)C)C(N)=O,6.6,1.5 mg/kg,2.57,6,,,
CC(C)c1ccc(C(CCN2CCCCC2)(CCN(C(C)C)C(C)C)C(N)=O)cc1 (stereo unspecified),6.2,3 mg/kg,0.75,2,,,
C=C[C@H]1CN2CC[C@H]1C[C@@H]2[C@@H](O)c1ccnc2ccc(OC)cc12 [QUINIDINE],2.2,13.5 mg/kg,0.4,,57%,110 min,110 min
CCN(CC)CCC(CCN(C(C)C)C(C)C)(C(N)=O)c1ccccc1 (stereo unspecified),4.6,7.5 mg/kg,0.94,5.5,,,
CC(C)N(CCC(CCN1CCCCCC1)(C(N)=O)c1ccccc1F)C(C)C (stereo unspecified),6.9,3 mg/kg,0.78,7.5,,,
CC(C)N(CCC(CCN1CCCCC1)(C(N)=O)c1ccccc1Br)C(C)C (stereo unspecified),7.2,1.5 mg/kg,1.2,13,,,
CC1CCCCN1CCC(CCN(C(C)C)C(C)C)(C(N)=O)c1ccccc1F (stereo unspecified),4.6,7.5 mg/kg,0.6,3.2,,,
CC(C)N(CCC(CCN(C(C)C)C(C)C)(C(N)=O)c1c(Cl)cccc1Cl)C(C)C,6.9,2.7 mg/kg,1.2,4.6,,,
CC(C)N(CCC(CCCN1CCCCC1)(C(N)=O)c1ccccc1F)C(C)C (stereo unspecified),4.2,7.5 mg/kg,0.36,> 6,,,
CC(C)N(CCC(CCn1cccc1)(C(N)=O)c1ccccc1)C(C)C (stereo unspecified),2.3,15 mg/kg,0.13,> 3.3,,,
CC(C)N(CCC(CCN1CC2CCC1CC2)(C(N)=O)c1ccccc1)C(C)C (stereo unspecified),6.7,3.5 mg/kg,1.38,4.6,,,
